Results taken from patent publication US8440199B2, “Methods for mobilizing mesenchymal stem cells in a patient” (Imperial Innovations Limited, priority 2007, dated 2013).

How the values were obtained:
[1] = system: haematopoietic progenitor cells (HPC); assay: Example 1: HPC mobilisation, hind limb bone marrow perfusion and circulating blood, CFU-HPC assay; assay type: in vivo, mice; conditions: G-CSF or VEGF 2.5 μg on 4 consecutive days, then AMD3100 (0.1 mM infusion or 5 mg/kg i.p.); perfusate and blood, FIGS. 1-4
Protocol: Assay was performed in duplicate Mobilised cells were maintained in semi-solid methylcellulose cultures for 11 days before quantification of the number of CFU-HPCs.

[2] = system: mesenchymal stem cells (MSC); assay: Example 1: MSC mobilisation, hind limb bone marrow perfusion and circulating blood, CFU-MSC assay; assay type: in vivo, mice; conditions: perfusate and blood, FIGS. 9-12
Protocol: 4×10^5 cells were added to 3 ml Mesencult media including supplements (05501 and 05502 Stemcell Technologies). Assay was performed in duplicate.

[3] = system: EPCs; assay: Circulating CFU-EPC in blood; assay type: in vivo, mice; conditions: FIG. 20c
[4] = system: EPCs; assay: In situ perfusion of mouse hind limb, CFU-EPC in perfusate; assay type: in vivo, mice; conditions: for EPC mobilization from the bone marrow: FIG. 21c
[5] = Total number of cells in the femurs; assay type: in vivo; conditions: treated over 4 days; not significantly different compared to control mice
Protocol: 24 hours after the last injection, mice were administered a CXCR4 antagonist (AMD3100, 5 mg/kg i.p), KC (30 μg/kg i.v.) or vehicle and blood was collected via cardiac puncture 60 minutes later for enumeration of circulating leukocyte, HPC, EPC, and stromal progenitor cell levels.
(§4) The perfusate was centrifuged and re-suspended in DMEM+20% FBS. In some experiments citrated blood was obtained via cardiac bleed and lysed for red blood cells. Bone marrow and perfusate cytospins, and blood smears were stained using DiffQuik for the enumeration of mononuclear cells, eosinophils, and neutrophils. Bone marrow, perfusate and lysed blood were then used for assays outlined below to enumerate HPCs (CFU-HPC), EPCs (CFU-EPC), SPCs (CFU-F).

[6] = system: HPCs; conditions: treated over 4 days, compared to controls, FIG. 22a
Protocol: 24 hours after the last injection, bone marrow was aspirated for the enumeration of a, CFU-HPC bone marrow frequency; b, CFU-EPC bone marrow frequency; and c, CFU-SPC bone marrow frequency.
(§1) Mobilized cells were incubated for 11 days before quantification.

[7] = system: EPCs; assay: CFU-EPC bone marrow frequency; assay type: in vivo, mice; conditions: treated over 4 days, compared to controls, FIG. 22b
[8] = system: SPCs; assay: CFU-SPC bone marrow frequency; assay type: in vivo, mice; conditions: treated over 4 days, compared to controls, FIG. 22c
Protocol: (§5) Female BALB/c mice were purchased from Harlan (Oxford, United Kingdom). […] 24 hours after the last injection, mice were administered a CXCR4 antagonist (AMD3100, 5 mg/kg i.p), KC (30 μg/kg i.v.) or vehicle and blood was collected via cardiac puncture 60 minutes later for enumeration of circulating leukocyte, HPC, EPC, and stromal progenitor cell levels.
as §4
5×10^5 cells were added to Mesencult media including supplements (Stemcell Technologies). Dishes were incubated for 7 days before media was changed, and then incubated for a further 14 days before the enumeration of SPC colonies (CFU-F).

[9] = system: CXCR4; assay: Flow cytometry of CXCR4 expression on bone marrow HPCs and EPCs; assay type: in vivo, mice; conditions: treated 4 days
Protocol: (§2) Bone marrow was aspirated on day 5 and harvested cells were used to determine a, SDF-1α levels in bone marrow supernatant as determined by ELISA; b, % of bone marrow Lin^− Sca-1^+ cells expressing CXCR4; and c, % of bone marrow CD34^+ VEGFR2^+ cells expressing CXCR4. Harvested cells were also utilized in the following chemotaxis assays: d, number of HPCs; and e, EPCs undergoing chemotaxis towards 30 nM SDF-1α. Cells taken from bone marrow of mice treated with G-CSF (closed bars) or vehicle (PBS, open bars). f, number of HPCs; and g, EPCs undergoing chemotaxis towards 30 nM SDF-1α.
(§3) For flow cytometric analysis, cells were re-suspended in FACS buffer. To identify neutrophils in the bone marrow, surface expression of the granulocyte marker Ly-6G/Ly6C (Gr-1) was determined. Neutrophils were identified as Gr-1^high positive cells with a characteristic high side scatter profile. HPCs residing in the BM were selected as being negative for lineage (Lin^−) markers: CD3e, CD11b, CD45R, Ly-76, and Gr-1 and positive for Sca-1 (Lin^− Sca-1^+ cells) (Gerber et al., 2002; Uchida, et al., 1997). EPCs residing in the BM were selected as being positive for both CD34 and VEGFR2 (CD34^+ VEGFR2^+ cells) (Asahara et al., 1997; Yoon et al., 2005). Furthermore, neutrophils were stained for the surface expression of CXCR2, whilst Lin^− Sca-1^+ cells and CD34^+ VEGFR2^+ cells were stained for the cell surface expression of CXCR4. Samples were then washed and then quantified on a FACSAria cell sorter (BD Biosciences, Oxford, United Kingdom) and analysed using FACSDiva software.

[10] = system: HPCs; assay: In vitro chemotaxis of bone marrow HPCs towards SDF-1α; assay type: cell-based; conditions: bone marrow cells of mice treated 4 days; 30 nM SDF-1α, FIG. 23d, 23f
Protocol: as §2

[11] = system: EPCs; assay: In vitro chemotaxis of bone marrow EPCs towards SDF-1α; assay type: cell-based; conditions: bone marrow cells of mice treated 4 days; 30 nM SDF-1α, FIG. 23e, 23g
Protocol: as §2

[12] = system: neutrophils; assay: Leukocyte counts of bone marrow; assay type: in vivo, mice; conditions: treated 4 days, compared to controls, FIG. 24f
Protocol: 24 hours later these mice underwent perfusion of the right hind limb. CXCR4 antagonist (AMD3100 0.1 mM, closed bars) or vehicle (PBS, open bars) were then infused directly into the femoral artery for 10 minutes. The hind limb was then perfused for a further 50 minutes to allow collection of a, neutrophils via the femoral vein. […] The hind limb was again perfused for a further 50 minutes to allow b, collection of neutrophils.
The perfusate was centrifuged and re-suspended in DMEM+20% FBS. […] Bone marrow and perfusate cytospins, and blood smears were stained using DiffQuik for the enumeration of mononuclear cells, eosinophils, and neutrophils.

[13] = system: HPC colonies; conditions: colonies grown from bone marrow of treated mice, FIGS. 25a, 25b
Protocol: a, number of cells per colony; and b, mean colony area; of CFU-HPC grown for […] in methocult.
as §1

[14] = system: Lin^− Sca-1^+ HPCs; assay: PI staining, cell cycle status of Lin- Sca-1+ HPCs; assay type: in vivo, mice; conditions: treated 4 days, FIG. 25c
Protocol: as §3, with “Furthermore, neutrophils were stained for the surface expression of CXCR2, whilst Lin^− Sca-1^+ cells and CD34^+ VEGFR2^+ cells were stained for the cell surface expression of CXCR4.” left out
Lin^− Sca-1^+ cells and CD34^+ VEGFR2^+ cells were analysed to determine their cell cycling status using a propidium iodide (PI) stain. […] A dotplot of PI-Width against PI-Area was recorded. Aggregates of cells were detected as cells having a larger PI-W profile and were not included in the gate. […] To calculate the percentage of cells undergoing active cell cycling, a marker was set to exclude the G0/G1 peak and the percentage of cells in S/G2/M was calculated.

[15] = system: neutrophils; conditions: VEGF pre-treatment 4 days, KC 30 μg/kg i.v., 60 minutes, FIG. 24c
Protocol: (§6) 24 hours later these mice underwent perfusion of the right hind limb. CXCR4 antagonist (AMD3100 0.1 mM, closed bars) or vehicle (PBS, open bars) were then infused directly into the femoral artery for 10 minutes. The hind limb was then perfused for a further 50 minutes to allow collection of a, neutrophils via the femoral vein. […] The hind limb was again perfused for a further 50 minutes to allow b, collection of neutrophils. […] Data: mean±s.e.m. *: P<0.05, ***: P<0.001 between selected groups.
as §5, §4

[16] = system: neutrophils; assay: Neutrophil mobilization, in situ perfusion of hind limb; conditions: VEGF (50 nM) infused acutely with CXCR4 antagonist, FIG. 24b
Protocol: as §6
On day 5 following pre-treatment of growth factors, mice were anaesthetized and the femoral artery and vein exposed. The hind limb was isolated by occlusion of the external iliac artery, superficial epigastric and muscular branch. […] Perfusion buffer was infused via the arterial cannula and removed from the venous cannula using a Minipuls peristaltic pump (Anachem, Luton, UK). The hind limb was perfused for an initial 2 minutes to remove remaining blood from the vasculature and then perfused for a further 60 min with vehicle alone or the CXCR4 antagonist (AMD3100, 0.1 mM), infused over the first 10 minutes using an infusion/withdrawal pump (Harvard Instruments, U.K.).
The perfusate was centrifuged and re-suspended in DMEM+20% FBS.

[17] = system: HPCs; assay: In situ perfusion of mouse hind limb, CFU-HPC in perfusate; conditions: for HPC mobilization from the bone marrow: FIG. 21b
Protocol: 24 hours after the last injection, mice underwent perfusion of the right hind limb. […] The hind limb was then perfused for a further 50 minutes to allow collection of b, CFU-HPC; c, CFU-EPC; or d, CFU-SPC; via the femoral vein. CFU-HPC, CFU-EPC, and CFU-SPC are shown as total number of colonies collected in the perfusate. n=5-8 mice per group. Data: means±s.e.m. *: P<0.05, **: P<0.01, ***: P<0.001 between selected groups.
Female BALB/c mice were purchased from Harlan (Oxford, United Kingdom).
On day 5 following pre-treatment of growth factors, mice were anaesthetized and the femoral artery and vein exposed. The hind limb was isolated by occlusion of the external iliac artery, superficial epigastric and muscular branch. Polyethylene cannulae (Portex, London, UK) were immediately inserted into the femoral artery and vein as previously described (Martin et al., 2003; 2006; Wengner et al., 2008). Perfusion buffer was infused via the arterial cannula and removed from the venous cannula using a Minipuls peristaltic pump (Anachem, Luton, UK). The hind limb was perfused for an initial 2 minutes to remove remaining blood from the vasculature and then perfused for a further 60 min with vehicle alone or the CXCR4 antagonist (AMD3100, 0.1 mM), infused over the first 10 minutes using an infusion/withdrawal pump (Harvard Instruments, U.K.).
The perfusate was centrifuged and re-suspended in DMEM+20% FBS. […] Bone marrow, perfusate and lysed blood were then used for assays outlined below to enumerate HPCs (CFU-HPC), EPCs (CFU-EPC), SPCs (CFU-F).
5×10^4 cells were added to Methocult medium (Stem cell technologies) supplemented with specific cytokines and growth factors to enable formation of CFU-HPC. Mobilized cells were incubated for 11 days before quantification. Further characteristics of CFU-HPC colonies were obtained on day 12, namely the mean number of cells in each colony, and the mean colony area. The mean colony area (mm^2) was determined by image analysis using Scion Image analysis program (NIH). The cell number was determined by diluting colonies grown in Methocult into DMEM (to disperse the methylcellulose) and aspirating the colonies into a single cell suspension before obtaining a cell count.
The total number of colony forming units mobilized was calculated according to the number of colonies per plate×by the total number of leukocytes mobilized/number of cells seeded.

[18] = growth factor pre-treatment 4 days, then CXCR4 antagonist infused

Substance: VEGF
- HPC mobilization [1]: inhibits the capacity for AMD3100 to mobilize HPCs
- MSC mobilization ([2]; G-CSF or VEGF 2.5 μg on 4 consecutive days, then AMD3100): mobilizes MSC into the blood
- MSC mobilization ([2]; agent alone): does not mobilize MSCs
- circulating numbers of EPCs ([3]; agent alone (AMD3100 5 mg/kg i.p., blood at 60 min; G-CSF or VEGF once daily for 4 days)): increase in EPC numbers
- circulating numbers of EPCs ([3]; growth factor pre-treatment over 4 days, then CXCR4 antagonist AMD3100 5 mg/kg i.p.): more than additive increase in EPC numbers
- EPC mobilization from the bone marrow ([4]; agent alone (CXCR4 antagonist 0.1 mM infused 10 min; G-CSF or VEGF pre-treatment 4 days)): significant EPC mobilization
- EPC mobilization, acute administration ([4]; growth factor (50 nM) infused into femoral artery for 10 minutes, alone, FIG. 31b): mobilized both HPCs and EPCs
- EPC mobilization from the bone marrow [4, 18]: an additive effect was observed for EPC mobilization
- total number of cells in the femurs [5]: 1.07±0.11×10^7 cells/femur
- frequency of HPCs in the bone marrow [6]: no difference was observed
- frequency/number of EPCs in the bone marrow [7]: no difference was observed
- frequency/number of SPCs in the bone marrow [8]: no difference was observed
- CXCR4 expression on EPCs ([9]; CD34+ VEGFR2+ bone marrow cells, FIG. 23c): did not alter the expression of CXCR4 on either HPCs or EPCs
- CXCR4 expression on HPCs ([9]; Lin- Sca-1+ bone marrow cells, FIG. 23b): did not alter the expression of CXCR4 on either HPCs or EPCs
- HPC chemotaxis towards SDF-1α [10]: abolished the ability of HPCs to migrate to SDF-1α
- EPC chemotaxis towards SDF-1α [11]: had no effect on EPC migration
- numbers of neutrophils in the bone marrow [12]: significant reduction in absolute numbers of mature neutrophils
- cellular content and size of HPC colonies [13]: significant increase in both their cellular content and size
- percentage of Lin- Sca-1+ HPCs in S/G2/M phase of the cell-cycle [14]: significant increase in the percentage of BM-HPCs
- KC-induced mobilization of neutrophils in vivo [15]: completely abrogated
- suppression of neutrophil mobilization in response to the CXCR4 antagonist, acute administration [16]: effect was not seen
- reduction of HPC mobilization induced by infusion of the CXCR4 antagonist ([17]; VEGF pre-treatment 4 days, then CXCR4 antagonist infused): 75%
- HPC mobilization from the bone marrow ([17]; agent alone (CXCR4 antagonist 0.1 mM infused 10 min; G-CSF or VEGF pre-treatment 4 days), perfusate over 1 hour): HPCs and SPCs were not mobilized
- HPC mobilization, acute administration ([17]; growth factor (50 nM) infused into femoral artery for 10 minutes, alone, FIG. 31a): mobilized both HPCs and EPCs
- HPC mobilization from the bone marrow [17, 18]: almost completely suppressed HPC mobilization
